target: T1, RmlA Q83N (Salmonella typhimurium, UniProt P26393, Q83N); assay: Relative activity of RmlA mutant Q83N with alternative NTPs; type: biochemical, Salmonella enterica typhimurium LT2; settings: 10 mM Glucose-1-phosphate, 0.1-10 μM enzyme, 5 mM NTP, 10 mM MgCl2, pH 8.0, 37° C.
T1 construct: His6 (pET28a) (N); made in house; host or cells: Escherichia coli BL21 (DE3)
Text: (§1) RmlA mutagenesis—RmlA mutants were generated with the Quikchange mutagenesis kit (Stratagene, La Jolla, Calif., USA) using the wt RmlA-pET28a parent expression plasmid as the template and the primers indicated in Table 1. Individual progeny plasmids were confirmed by DNA sequencing to carry the desired mutations. Driven by these mutant plasmids, the corresponding RmlA variants were subsequently expressed and purified as described above.
(§2) Enzymatic Reactions—The enzyme assay was accomplished via slight modification of previously reported methods (Jiang et al. (2000) J. Am. Chem. Soc. 122, 6803-6804; Jiang et al. (2001) Angew. Chem., Int. Ed. 40, 1502-1505; Jiang et al. (2003) Chem Bio Chem 4, 443-446; Barton et al. (2002) Proc. Natl. Acad. Sci. U.S.A. 99, 13397-13402). In a typical reaction, sugar-1-phosphate (10 mM final) and enzyme (0.01-50 μM) were mixed with NTP (0.01-40 mM) in the presence of MgCl2 ([NTP]+5 mM) and 10 U/mL inorganic pyrophosphatase (Sigma, St. Louis, Mo., USA) in 100 mM Tris HCl, pH 8.0 (20 μL final volume). Typical reactions were analyzed after 10 min at 37° C. and reaction times were extended for some slow reacting sugar/NTP combinations. Reactions were stopped by the addition of 80 μL prewarmed HPLC buffer and heat inactivation (95° C., 5 min). The amount of enzyme used and the incubation time was adjusted so that the reactions never proceeded to more than 10% turnover for kinetics, or 30% for activity assays.
(§3) Product Characterization—Reactions were analyzed via analytical HPLC (Supelcosil LC18-T; Supelco, Bellefonte, Pa.; 5 μm, 250×3 mm, 40 mM phosphoric acid, pH 6.5 with triethylamine, with a gradient of 0-10% MeOH over 20 min, 0.8 mL/min, A254). Due to earlier elution, a 5 min 0% MeOH isocratic hold was performed prior to starting the gradient for CTP-containing reactions. For nucleotide sugar products with commercially available standards, HPLC peak identity was confirmed by co-elution.

T1 sequence (P26393 whole entry Q83N): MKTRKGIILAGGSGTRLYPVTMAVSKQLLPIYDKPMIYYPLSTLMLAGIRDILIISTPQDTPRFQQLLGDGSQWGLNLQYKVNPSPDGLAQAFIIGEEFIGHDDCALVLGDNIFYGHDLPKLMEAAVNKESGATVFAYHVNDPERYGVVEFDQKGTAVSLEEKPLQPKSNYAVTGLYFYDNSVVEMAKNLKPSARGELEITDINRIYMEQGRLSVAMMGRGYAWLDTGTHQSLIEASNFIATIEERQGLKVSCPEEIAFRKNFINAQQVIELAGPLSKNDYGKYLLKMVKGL

Structure (SMILES)	Relative activity of Q83N as compared to wt RmlA
Cc1cn([C@H]2C[C@H](O)[C@@H](COP(=O)(O)OP(=O)(O)OP(=O)(O)O)O2)c(=O)[nH]c1=O [dTTP, 2′deoxythymidine-5′-triphosphate]	0.3

target: T2, RmlA Q83S (Salmonella typhimurium, UniProt P26393, Q83S); assay: Relative activity of RmlA mutant Q83S with alternative NTPs; type: biochemical, Salmonella enterica typhimurium LT2; settings: 10 mM Glucose-1-phosphate, 0.1-10 μM enzyme, 5 mM NTP, 10 mM MgCl2, pH 8.0, 37° C.
T2 construct: His6 (pET28a) (N); made in house; host or cells: Escherichia coli BL21 (DE3)
Text: as §1, §2, §3

T2 sequence (P26393 whole entry Q83S): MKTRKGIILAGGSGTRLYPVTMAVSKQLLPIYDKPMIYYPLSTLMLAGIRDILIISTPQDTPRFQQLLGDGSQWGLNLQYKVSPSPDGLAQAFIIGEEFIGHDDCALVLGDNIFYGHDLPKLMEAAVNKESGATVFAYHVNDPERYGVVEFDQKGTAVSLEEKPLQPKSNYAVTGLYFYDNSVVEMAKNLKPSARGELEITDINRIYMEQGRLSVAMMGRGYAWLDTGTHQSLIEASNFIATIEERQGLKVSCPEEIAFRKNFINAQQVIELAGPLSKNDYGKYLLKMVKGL

Structure (SMILES)	Relative activity of Q83S as compared to wt RmlA
Nc1ccn([C@H]2C[C@H](O)[C@@H](COP(=O)(O)OP(=O)(O)OP(=O)(O)O)O2)c(=O)n1 [dCTP, 2′-deoxycytidine-5′-triphosphate]	1.4
Cc1cn([C@H]2C[C@H](O)[C@@H](COP(=O)(O)OP(=O)(O)OP(=O)(O)O)O2)c(=O)[nH]c1=O [dTTP, 2′deoxythymidine-5′-triphosphate]	0.3

target: wt RmlA (glucose-1-phosphate thymidylyltransferase) (Salmonella typhimurium, UniProt P26393); assay: not given; settings: Wild-type RmlA; 10 mM glucose-1-phosphate, 0.05-25 μM enzyme, [NTP] + 5 mM MgCl2, 100 mM Tris-HCl pH 8.0, 37° C.
Procedure: as §2
(§4) Product Characterization—Reactions were analyzed via analytical HPLC (Supelcosil LC18-T; Supelco, Bellefonte, Pa.; 5 μm, 250×3 mm, 40 mM phosphoric acid, pH 6.5 with triethylamine, with a gradient of 0-10% MeOH over 20 min, 0.8 mL/min, A254). Due to earlier elution, a 5 min 0% MeOH isocratic hold was performed prior to starting the gradient for CTP-containing reactions.
(§5) Kinetic Measurements—Pseudo first order kinetics were obtained by fixing glucose-1-phosphate at a saturating concentration of 10 mM (Barton et al. (2001) Nat Struct Biol 8, 545-551), and titrating NTPs. At least eight different concentrations in the range of ¼×KM to 4×KM (0.09-20 mM for dTTP, 0.2-40 mM for others) were assayed in triplicate. […] Activities were corrected for time and enzyme concentrations, and the kinetic curves were fit to the Michaelis-Menton equation using SigmaPlot with the Enzyme Kinetics module (SPSS, Chicago, Ill., USA).

Sequence of wt RmlA (glucose-1-phosphate thymidylyltransferase) (P26393 whole entry): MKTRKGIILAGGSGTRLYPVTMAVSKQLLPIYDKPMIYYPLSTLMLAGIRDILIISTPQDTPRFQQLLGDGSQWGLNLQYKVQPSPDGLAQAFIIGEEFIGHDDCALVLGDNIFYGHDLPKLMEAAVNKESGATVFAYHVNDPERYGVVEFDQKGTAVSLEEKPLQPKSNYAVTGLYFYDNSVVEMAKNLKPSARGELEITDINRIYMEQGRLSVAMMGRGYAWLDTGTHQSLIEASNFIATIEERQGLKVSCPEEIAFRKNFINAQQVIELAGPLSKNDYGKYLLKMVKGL

Structure (SMILES)	kcat^app
Cc1cn([C@H]2C[C@H](O)[C@@H](COP(=O)(O)OP(=O)(O)OP(=O)(O)O)O2)c(=O)[nH]c1=O [dTTP, 2′deoxythymidine-5′-triphosphate]	30.83 ± 0.667 s⁻¹

same assay, conditions: read-out: KM^app; Wild-type RmlA; 10 mM glucose-1-phosphate, 0.05-25 μM enzyme, [NTP] + 5 mM MgCl2, 100 mM Tris-HCl pH 8.0, 37° C.

Structure (SMILES)	Km
Cc1cn([C@H]2C[C@H](O)[C@@H](COP(=O)(O)OP(=O)(O)OP(=O)(O)O)O2)c(=O)[nH]c1=O [dTTP, 2′deoxythymidine-5′-triphosphate]	290 ± 40 µM

tested on: UDP-sugar pyrophosphorylase (Usp); assay: not given; settings: Thermus caldophilus Usp, literature; cited from earlier work

Structure (SMILES)	turnover of glucose-1-phosphate with NTP by Usp
Cc1cn([C@H]2C[C@H](O)[C@@H](COP(=O)(O)OP(=O)(O)OP(=O)(O)O)O2)c(=O)[nH]c1=O [dTTP, 2′deoxythymidine-5′-triphosphate]	turn over

target: T3, RmlA Q83A (Salmonella typhimurium, UniProt P26393, Q83A); assay: Relative activity of RmlA mutant Q83A with alternative NTPs; type: biochemical, Salmonella enterica typhimurium LT2; settings: 10 mM Glucose-1-phosphate, 0.1-10 μM enzyme, 5 mM NTP, 10 mM MgCl2, pH 8.0, 37° C.
T3 construct: His6 (pET28a) (N); made in house; host or cells: Escherichia coli BL21 (DE3)
Text: as §1, §2, §3

T3 sequence (P26393 whole entry Q83A): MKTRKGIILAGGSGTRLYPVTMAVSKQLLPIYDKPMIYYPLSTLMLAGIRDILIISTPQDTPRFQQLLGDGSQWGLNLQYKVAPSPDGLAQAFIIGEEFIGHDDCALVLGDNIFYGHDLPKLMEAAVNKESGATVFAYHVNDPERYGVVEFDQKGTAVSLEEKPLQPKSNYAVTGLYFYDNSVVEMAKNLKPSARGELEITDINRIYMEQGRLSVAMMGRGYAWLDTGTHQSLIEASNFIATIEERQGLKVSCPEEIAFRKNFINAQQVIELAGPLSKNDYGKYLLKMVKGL

Structure (SMILES)	Relative activity of Q83A as compared to wt RmlA
Nc1ccn([C@H]2C[C@H](O)[C@@H](COP(=O)(O)OP(=O)(O)OP(=O)(O)O)O2)c(=O)n1 [dCTP, 2′-deoxycytidine-5′-triphosphate]	0.8
Cc1cn([C@H]2C[C@H](O)[C@@H](COP(=O)(O)OP(=O)(O)OP(=O)(O)O)O2)c(=O)[nH]c1=O [dTTP, 2′deoxythymidine-5′-triphosphate]	0.2

target: T4, RmlA Q83D (Salmonella typhimurium, UniProt P26393, Q83D); assay: Relative activity of RmlA mutant Q83D with alternative NTPs; type: biochemical, Salmonella enterica typhimurium LT2; settings: 10 mM Glucose-1-phosphate, 0.1-10 μM enzyme, 5 mM NTP, 10 mM MgCl2, pH 8.0, 37° C.
T4 construct: using BSA as a standard, and a molecular mass of 34.6 kDa; His6 (pET28a) (N); made in house; host or cells: Escherichia coli BL21 (DE3)
Text: as §1, §2, §3

T4 sequence (P26393 whole entry Q83D): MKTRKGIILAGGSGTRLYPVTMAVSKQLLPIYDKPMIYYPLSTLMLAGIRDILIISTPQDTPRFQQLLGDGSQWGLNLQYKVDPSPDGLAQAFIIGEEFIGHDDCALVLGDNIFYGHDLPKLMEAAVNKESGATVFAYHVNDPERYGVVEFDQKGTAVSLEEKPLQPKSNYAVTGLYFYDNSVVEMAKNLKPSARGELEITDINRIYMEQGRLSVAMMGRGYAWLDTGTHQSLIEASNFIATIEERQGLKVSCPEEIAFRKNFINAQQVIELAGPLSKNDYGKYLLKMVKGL

Structure (SMILES)	Relative activity of Q83D as compared to wt RmlA
Nc1ccn([C@H]2C[C@H](O)[C@@H](COP(=O)(O)OP(=O)(O)OP(=O)(O)O)O2)c(=O)n1 [dCTP, 2′-deoxycytidine-5′-triphosphate]	1.2
Cc1cn([C@H]2C[C@H](O)[C@@H](COP(=O)(O)OP(=O)(O)OP(=O)(O)O)O2)c(=O)[nH]c1=O [dTTP, 2′deoxythymidine-5′-triphosphate]	0.2

target: T4, RmlA Q83D; assay: Pseudo first order kinetics of RmlA Q83D mutant; type: biochemical, Salmonella enterica typhimurium LT2; settings: not given
Text: (§6) Driven by these mutant plasmids, the corresponding RmlA variants were subsequently expressed and purified as described above.
as §2, §4, §5

Structure (SMILES)	increase in KM, Q83D versus wild-type
Cc1cn([C@H]2C[C@H](O)[C@@H](COP(=O)(O)OP(=O)(O)OP(=O)(O)O)O2)c(=O)[nH]c1=O [dTTP, 2′deoxythymidine-5′-triphosphate]	21 fold

same assay, conditions: 10 mM glucose-1-phosphate, 0.05-25 μM enzyme, [NTP] + 5 mM MgCl2, 100 mM Tris-HCl pH 8.0, 37° C.

Structure (SMILES)	kcat^app
Cc1cn([C@H]2C[C@H](O)[C@@H](COP(=O)(O)OP(=O)(O)OP(=O)(O)O)O2)c(=O)[nH]c1=O [dTTP, 2′deoxythymidine-5′-triphosphate]	3.62 ± 0.233 s⁻¹

same assay, conditions: 10 mM glucose-1-phosphate, 0.05-25 μM enzyme, [NTP] + 5 mM MgCl2, 100 mM Tris-HCl pH 8.0, 37° C., read-out: KM^app

Structure (SMILES)	Km
Cc1cn([C@H]2C[C@H](O)[C@@H](COP(=O)(O)OP(=O)(O)OP(=O)(O)O)O2)c(=O)[nH]c1=O [dTTP, 2′deoxythymidine-5′-triphosphate]	6200 ± 1200 µM

target: T5, RmlA Q83E (Salmonella typhimurium, UniProt P26393, Q83E); assay: Relative activity of RmlA mutant Q83E with alternative NTPs; type: biochemical, Salmonella enterica typhimurium LT2; settings: 10 mM Glucose-1-phosphate, 0.1-10 μM enzyme, 5 mM NTP, 10 mM MgCl2, pH 8.0, 37° C.
T5 construct: His6 (pET28a) (N); made in house; host or cells: Escherichia coli BL21 (DE3)
Text: as §1, §2, §3

T5 sequence (P26393 whole entry Q83E): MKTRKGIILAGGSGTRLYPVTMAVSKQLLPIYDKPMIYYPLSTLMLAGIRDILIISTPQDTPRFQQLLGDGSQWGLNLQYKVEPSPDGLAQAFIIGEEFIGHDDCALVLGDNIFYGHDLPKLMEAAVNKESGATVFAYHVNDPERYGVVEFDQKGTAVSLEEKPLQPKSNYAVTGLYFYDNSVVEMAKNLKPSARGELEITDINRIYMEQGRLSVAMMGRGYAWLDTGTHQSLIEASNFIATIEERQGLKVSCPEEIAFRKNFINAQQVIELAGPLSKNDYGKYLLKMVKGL

Structure (SMILES)	Relative activity of Q83E as compared to wt RmlA
Nc1ccn([C@H]2C[C@H](O)[C@@H](COP(=O)(O)OP(=O)(O)OP(=O)(O)O)O2)c(=O)n1 [dCTP, 2′-deoxycytidine-5′-triphosphate]	1.1
Cc1cn([C@H]2C[C@H](O)[C@@H](COP(=O)(O)OP(=O)(O)OP(=O)(O)O)O2)c(=O)[nH]c1=O [dTTP, 2′deoxythymidine-5′-triphosphate]	1.0

target: T2, RmlA Q83S; assay: Pseudo first order kinetics of RmlA Q83S mutant; type: biochemical, Salmonella enterica typhimurium LT2; settings: 10 mM glucose-1-phosphate, 0.05-25 μM enzyme, [NTP] + 5 mM MgCl2, 100 mM Tris-HCl pH 8.0, 37° C.
Text: as §6, §2, §4, §5

Structure (SMILES)	kcat^app
Cc1cn([C@H]2C[C@H](O)[C@@H](COP(=O)(O)OP(=O)(O)OP(=O)(O)O)O2)c(=O)[nH]c1=O [dTTP, 2′deoxythymidine-5′-triphosphate]	6.33 ± 0.5 s⁻¹

same assay, conditions: 10 mM glucose-1-phosphate, 0.05-25 μM enzyme, [NTP] + 5 mM MgCl2, 100 mM Tris-HCl pH 8.0, 37° C., read-out: KM^app

Structure (SMILES)	Km
Cc1cn([C@H]2C[C@H](O)[C@@H](COP(=O)(O)OP(=O)(O)OP(=O)(O)O)O2)c(=O)[nH]c1=O [dTTP, 2′deoxythymidine-5′-triphosphate]	2400 ± 600 µM

target: ST0452 (Sulfurisphaera tokodaii, UniProt Q975F9); assay: not given; settings: Sulfolobus tokodaii ST0452, literature; cited from earlier work
Sequence (Q975F9 whole entry): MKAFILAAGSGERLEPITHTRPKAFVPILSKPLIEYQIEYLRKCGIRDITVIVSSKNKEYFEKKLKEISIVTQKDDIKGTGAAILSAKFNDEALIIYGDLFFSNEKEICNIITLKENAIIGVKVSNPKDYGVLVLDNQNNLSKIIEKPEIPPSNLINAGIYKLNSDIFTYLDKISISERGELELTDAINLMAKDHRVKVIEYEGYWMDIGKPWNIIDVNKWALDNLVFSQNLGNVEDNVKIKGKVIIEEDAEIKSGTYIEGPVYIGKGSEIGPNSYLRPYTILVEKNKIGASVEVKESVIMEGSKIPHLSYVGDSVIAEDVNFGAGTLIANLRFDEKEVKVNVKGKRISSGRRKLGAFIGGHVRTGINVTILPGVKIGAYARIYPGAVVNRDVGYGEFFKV

Structure (SMILES)	utilization of NTP by ST0452
Nc1ccn([C@H]2C[C@H](O)[C@@H](COP(=O)(O)OP(=O)(O)OP(=O)(O)O)O2)c(=O)n1 [dCTP, 2′-deoxycytidine-5′-triphosphate]	good activity
Cc1cn([C@H]2C[C@H](O)[C@@H](COP(=O)(O)OP(=O)(O)OP(=O)(O)O)O2)c(=O)[nH]c1=O [dTTP, 2′deoxythymidine-5′-triphosphate]	good activity

— patent US8097443B2, “Nucleotidyltransferases with enhanced nucleotide triphosphate flexibility” (priority 2007, dated 2012)
